Reference: patent USRE44733E1, “6-mercapto-cyclodextrin derivatives:reversal agents for drug-induced neuromuscular block” (Merck Sharp & Dohme B.V., priority 1999, dated 2014)

Tested on: neuromuscular block, induced by the muscle relaxant rocuronium bromide (Roc)
Assay: Reversal of neuromuscular blockade in anaesthetized guinea pigs in vivo
Conditions: for concentration at maximum reversal (at conc.) / % max reversal: anaesthetized guinea pigs, rocuronium bromide steady-state block; for concentration at maximum reversal (at conc.): dose of reversal agent at which % max reversal was seen; for % max reversal: maximum reversal; for ED50: dose producing 50% reversal of steady-state neuromuscular block: anaesthetized male Dunkin-Hartley guinea pigs, steady-state block of 85-90% by continuous rocuronium bromide infusion, reversal agent given by jugular vein catheter, M. gastrocnemius contractions
Description: Reversal of Neuromuscular Blockade in Anaesthetized Guinea Pigs in vivo
Male Dunkin-Hartley guinea pigs (bodyweight: 600-900 g) were anaesthetized by i.p. administration of 10 mg/kg pentobarbitone and 1000 mg/kg urethane. After tracheotomy, the animals were artificially ventilated using a Harvard small animal ventilator. A catheter was placed into the carotid artery for continuous monitoring of arterial blood pressure and the taking of blood samples for blood gas analysis. Heart rate was derived from the blood pressure signal. The sciatic nerve was stimulated (rectangular pulses of 0.5 ms duration at 10 s (0.1 Hz) intervals at a supramaximal voltage, using a Grass S88 Stimulator) and the force of M. gastrocnemius contractions was measured using a Grass FT03 force-displacement transducer. Contractions, blood pressure and heart rate were recorded on a multichannel Grass 7D recorder. Catheters were placed in both jugular veins. One catheter was used for the continuous infusion of a neuromuscular blocking agent. The infusion rate of the neuromuscular blocking agent was increased until a steady-state block of 85-90% was obtained. The other catheter was used for administration of increasing doses of the reversal agent. During continuous infusion of the neuromuscular blocking agent, single doses of increasing concentration of reversal agent were given. At the end of the experiment, the measured force of muscle contractions was plotted against the concentration of reversal agent, and using regression analysis techniques, the 50% reversal concentration was calculated. Results for the reversal of the neuromuscular block, induced by the muscle relaxant rocuronium bromide (Roc), by the 6-mercapto-cyclodextrin derivatives of Examples 1-19 are presented in Table I. For comparison, the reversal activity of the parent compounds β-cyclodextrin and γ-cyclodextrin are included as well.

SMILES: O=C([O-])c1ccc(SCC2OC3OC4C(CO)OC(OC5C(CO)OC(OC6C(CO)OC(OC7C(CO)OC(OC8C(CO)OC(OC9C(CO)OC(OC%10C(CO)OC(OC2C(O)C3O)C(O)C%10O)C(O)C9O)C(O)C8O)C(O)C7O)C(O)C6O)C(O)C5O)C(O)C4O)cc1.[Na+] (stereo not drawn) [example 1, 6-mono-Deoxy-6-mono-(4-carboxyphenyl)thio-γ-cyclodextrin, Sodium Salt]
- concentration at maximum reversal (at conc.): (8.0) μmol · kg^−1
- % max reversal: 102%
- ED50: dose producing 50% reversal of steady-state neuromuscular block: 0.94 µmol/kg

SMILES: O=C([O-])c1ccccc1SC[C@H]1O[C@@H]2O[C@H]3[C@H](O)[C@@H](O)[C@@H](O[C@H]4[C@H](O)[C@@H](O)[C@@H](O[C@H]5[C@H](O)[C@@H](O)[C@@H](O[C@H]6[C@H](O)[C@@H](O)[C@@H](O[C@H]7[C@H](O)[C@@H](O)[C@@H](O[C@H]8[C@H](O)[C@@H](O)[C@@H](O[C@H]9[C@H](O)[C@@H](O)[C@@H](O[C@H]1[C@H](O)[C@H]2O)O[C@@H]9CO)O[C@@H]8CO)O[C@@H]7CO)O[C@@H]6CO)O[C@@H]5CO)O[C@@H]4CO)O[C@@H]3CO.[Na+] [example 2, 6mono-Deoxy-6-mono-(2-carboxyphenyl)thio-γ-cyclodextin, Sodium Salt]
- concentration at maximum reversal (at conc.): (11) μmol · kg^−1
- % max reversal: 93%
- ED50: dose producing 50% reversal of steady-state neuromuscular block: 1.30 µmol/kg

SMILES: O=C([O-])c1cccc(SCC2OC3OC4C(CSc5cccc(C(=O)[O-])c5)OC(OC5C(CSc6cccc(C(=O)[O-])c6)OC(OC6C(CSc7cccc(C(=O)[O-])c7)OC(OC7C(CSc8cccc(C(=O)[O-])c8)OC(OC8C(CSc9cccc(C(=O)[O-])c9)OC(OC9C(CSc%10cccc(C(=O)[O-])c%10)OC(OC%10C(CSc%11cccc(C(=O)[O-])c%11)OC(OC2C(O)C3O)C(O)C%10O)C(O)C9O)C(O)C8O)C(O)C7O)C(O)C6O)C(O)C5O)C(O)C4O)c1.[Na+].[Na+].[Na+].[Na+].[Na+].[Na+].[Na+].[Na+] (stereo not drawn) [example 3, 6-Per-deoxy-6-per-(3-carboxyphenyl)thio-γ-cyclodextrin, Sodium Salt]
- concentration at maximum reversal (at conc.): (1.28) μmol · kg^−1
- % max reversal: 102%
- ED50: dose producing 50% reversal of steady-state neuromuscular block: 0.28 µmol/kg

SMILES: O=C([O-])CCSC[C@H]1O[C@@H]2O[C@H]3[C@H](O)[C@@H](O)[C@@H](O[C@H]4[C@H](O)[C@@H](O)[C@@H](O[C@H]5[C@H](O)[C@@H](O)[C@@H](O[C@H]6[C@H](O)[C@@H](O)[C@@H](O[C@H]7[C@H](O)[C@@H](O)[C@@H](O[C@H]8[C@H](O)[C@@H](O)[C@@H](O[C@H]9[C@H](O)[C@@H](O)[C@@H](O[C@H]1[C@H](O)[C@H]2O)O[C@@H]9CSCCC(=O)[O-])O[C@@H]8CSCCC(=O)[O-])O[C@@H]7CSCCC(=O)[O-])O[C@@H]6CSCCC(=O)[O-])O[C@@H]5CSCCC(=O)[O-])O[C@@H]4CSCCC(=O)[O-])O[C@@H]3CSCCC(=O)[O-].[Na+].[Na+].[Na+].[Na+].[Na+].[Na+].[Na+].[Na+] [example 4, 6-Per-deoxy-6-per-(2-carboxyethyl)thio-γ-cyclodextrin, Sodium Salt]
- concentration at maximum reversal (at conc.): (0.53) μmol · kg^−1
- % max reversal: 97%
- ED50: dose producing 50% reversal of steady-state neuromuscular block: 0.09 µmol/kg

SMILES: O=C([O-])CCCCCSC[C@H]1O[C@@H]2O[C@H]3[C@H](O)[C@@H](O)[C@@H](O[C@H]4[C@H](O)[C@@H](O)[C@@H](O[C@H]5[C@H](O)[C@@H](O)[C@@H](O[C@H]6[C@H](O)[C@@H](O)[C@@H](O[C@H]7[C@H](O)[C@@H](O)[C@@H](O[C@H]8[C@H](O)[C@@H](O)[C@@H](O[C@H]9[C@H](O)[C@@H](O)[C@@H](O[C@H]1[C@H](O)[C@H]2O)O[C@@H]9CSCCCCCC(=O)[O-])O[C@@H]8CSCCCCCC(=O)[O-])O[C@@H]7CSCCCCCC(=O)[O-])O[C@@H]6CSCCCCCC(=O)[O-])O[C@@H]5CSCCCCCC(=O)[O-])O[C@@H]4CSCCCCCC(=O)[O-])O[C@@H]3CSCCCCCC(=O)[O-].[Na+].[Na+].[Na+].[Na+].[Na+].[Na+].[Na+].[Na+] [example 5, 6-Per-deoxy-6-per-(5-carboxypentyl)thio-γ-cyclodextrin, Sodium Salt]
- concentration at maximum reversal (at conc.): (2.5) μmol · kg^−1
- % max reversal: 78%
- ED50: dose producing 50% reversal of steady-state neuromuscular block: 0.74 µmol/kg

SMILES: O=C([O-])CCCSC[C@H]1O[C@@H]2O[C@H]3[C@H](O)[C@@H](O)[C@@H](O[C@H]4[C@H](O)[C@@H](O)[C@@H](O[C@H]5[C@H](O)[C@@H](O)[C@@H](O[C@H]6[C@H](O)[C@@H](O)[C@@H](O[C@H]7[C@H](O)[C@@H](O)[C@@H](O[C@H]8[C@H](O)[C@@H](O)[C@@H](O[C@H]9[C@H](O)[C@@H](O)[C@@H](O[C@H]1[C@H](O)[C@H]2O)O[C@@H]9CSCCCC(=O)[O-])O[C@@H]8CSCCCC(=O)[O-])O[C@@H]7CSCCCC(=O)[O-])O[C@@H]6CSCCCC(=O)[O-])O[C@@H]5CSCCCC(=O)[O-])O[C@@H]4CSCCCC(=O)[O-])O[C@@H]3CSCCCC(=O)[O-].[Na+].[Na+].[Na+].[Na+].[Na+].[Na+].[Na+].[Na+] [example 6, 6-Per-deoxy-6-per-(3carboxypropyl)thio-γ-cyclodextrin, Sodium Salt]
- concentration at maximum reversal (at conc.): (0.48) μmol · kg^−1
- % max reversal: 108%
- ED50: dose producing 50% reversal of steady-state neuromuscular block: 0.09 µmol/kg

SMILES: O=C([O-])CSC[C@H]1O[C@@H]2O[C@H]3[C@H](O)[C@@H](O)[C@@H](O[C@H]4[C@H](O)[C@@H](O)[C@@H](O[C@H]5[C@H](O)[C@@H](O)[C@@H](O[C@H]6[C@H](O)[C@@H](O)[C@@H](O[C@H]7[C@H](O)[C@@H](O)[C@@H](O[C@H]8[C@H](O)[C@@H](O)[C@@H](O[C@H]9[C@H](O)[C@@H](O)[C@@H](O[C@H]1[C@H](O)[C@H]2O)O[C@@H]9CSCC(=O)[O-])O[C@@H]8CSCC(=O)[O-])O[C@@H]7CSCC(=O)[O-])O[C@@H]6CSCC(=O)[O-])O[C@@H]5CSCC(=O)[O-])O[C@@H]4CSCC(=O)[O-])O[C@@H]3CSCC(=O)[O-].[Na+].[Na+].[Na+].[Na+].[Na+].[Na+].[Na+].[Na+] [example 7, 6-Per-deoxy-6-per-carboxymethylthio-γ-cyclodextrin, Sodium Salt]
- concentration at maximum reversal (at conc.): (1.92) μmol · kg^−1
- % max reversal: 88%
- ED50: dose producing 50% reversal of steady-state neuromuscular block: 0.21 µmol/kg

SMILES: O=C([O-])c1ccc(SC[C@H]2O[C@@H]3O[C@H]4[C@H](O)[C@@H](O)[C@@H](O[C@H]5[C@H](O)[C@@H](O)[C@@H](O[C@H]6[C@H](O)[C@@H](O)[C@@H](O[C@H]7[C@H](O)[C@@H](O)[C@@H](O[C@H]8[C@H](O)[C@@H](O)[C@@H](O[C@H]9[C@H](O)[C@@H](O)[C@@H](O[C@H]%10[C@H](O)[C@@H](O)[C@@H](O[C@H]2[C@H](O)[C@H]3O)O[C@@H]%10CSc2ccc(C(=O)[O-])cc2)O[C@@H]9CSc2ccc(C(=O)[O-])cc2)O[C@@H]8CSc2ccc(C(=O)[O-])cc2)O[C@@H]7CSc2ccc(C(=O)[O-])cc2)O[C@@H]6CSc2ccc(C(=O)[O-])cc2)O[C@@H]5CSc2ccc(C(=O)[O-])cc2)O[C@@H]4CSc2ccc(C(=O)[O-])cc2)cc1.[Na+].[Na+].[Na+].[Na+].[Na+].[Na+].[Na+].[Na+] [example 8, 6-Per-deoxy-6-per-(4-carboxyphenyl)thio-γ-cyclodextrin, Sodium Salt]
- concentration at maximum reversal (at conc.): (0.48) μmol · kg^−1
- % max reversal: 95%
- ED50: dose producing 50% reversal of steady-state neuromuscular block: 0.10 µmol/kg

SMILES: O=C([O-])Cc1ccc(SC[C@H]2O[C@@H]3O[C@H]4[C@H](O)[C@@H](O)[C@@H](O[C@H]5[C@H](O)[C@@H](O)[C@@H](O[C@H]6[C@H](O)[C@@H](O)[C@@H](O[C@H]7[C@H](O)[C@@H](O)[C@@H](O[C@H]8[C@H](O)[C@@H](O)[C@@H](O[C@H]9[C@H](O)[C@@H](O)[C@@H](O[C@H]%10[C@H](O)[C@@H](O)[C@@H](O[C@H]2[C@H](O)[C@H]3O)O[C@@H]%10CSc2ccc(CC(=O)[O-])cc2)O[C@@H]9CSc2ccc(CC(=O)[O-])cc2)O[C@@H]8CSc2ccc(CC(=O)[O-])cc2)O[C@@H]7CSc2ccc(CC(=O)[O-])cc2)O[C@@H]6CSc2ccc(CC(=O)[O-])cc2)O[C@@H]5CSc2ccc(CC(=O)[O-])cc2)O[C@@H]4CSc2ccc(CC(=O)[O-])cc2)cc1.[Na+].[Na+].[Na+].[Na+].[Na+].[Na+].[Na+].[Na+] [example 9, 6-Per-deoxy-6-per-(4-carboxymethylphenyl)thio-γ-cyclodextrin, Sodium Salt]
- concentration at maximum reversal (at conc.): (0.50) μmol · kg^−1
- % max reversal: 100%
- ED50: dose producing 50% reversal of steady-state neuromuscular block: 0.13 µmol/kg

SMILES: NC(=O)CCCSCC1OC2OC3C(CSCCCC(N)=O)OC(OC4C(CSCCCC(N)=O)OC(OC5C(CSCCCC(N)=O)OC(OC6C(CSCCCC(N)=O)OC(OC7C(CSCCCC(N)=O)OC(OC8C(CSCCCC(N)=O)OC(OC9C(CSCCCC(N)=O)OC(OC1C(O)C2O)C(O)C9O)C(O)C8O)C(O)C7O)C(O)C6O)C(O)C5O)C(O)C4O)C(O)C3O (stereo not drawn) [example 10, 6-Per-deoxy-6-per(3-amidopropyl)thio-γ-cyclodextrin]
- concentration at maximum reversal (at conc.): (33) μmol · kg^−1
- % max reversal: 94%
- ED50: dose producing 50% reversal of steady-state neuromuscular block: 0.57 µmol/kg
